US9676789B2, “Aminated derivative of homoharringtonine, preparation method therefor, and application thereof” (HANGZHOU BENSHENG PHARMACEUTICAL CO., LTD., priority 2011, dated 2017)
Values after ≈ are worked out from the molar mass of the structure shown.

How the values were obtained:
[1] = tested on: Becap37 (human breast cancer cell); experiment: MTT solid tumor cell growth inhibition, 72 h; assay type: cell-based; conditions: Homo sapiens, Becap37, 72 h
Summary of the method: (§1)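 Percent cell viability comes from the MTT method, normalised to untreated control wells as 100%. Compounds at varying concentrations were left on the cells for 72 h after a 24 h settling period, with 4000 cells seeded per well in 10% FBS-supplemented DMEM high glucose.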

[2] = tested on: Hela (human cervical cancer cell); experiment: MTT solid tumor cell growth inhibition, 72 h; assay type: cell-based; conditions: Homo sapiens, HeLa
Summary of the method: as §1

[3] = tested on: Hep-2 (human hepatocellular carcinoma); experiment: MTT solid tumor cell growth inhibition, 72 h; assay type: cell-based; conditions: Homo sapiens, HEp-2, Hep2, 72 h
Summary of the method: as §1

[4] = tested on: MGC 803 (human gastric cancer cell); experiment: MTT solid tumor cell growth inhibition, 72 h; assay type: cell-based; conditions: Homo sapiens, MGC 803, 72 h
Summary of the method: as §1

[5] = tested on: RKO (human colon adenocarcinoma cell); experiment: MTT solid tumor cell growth inhibition, 72 h; assay type: cell-based; conditions: Homo sapiens
Summary of the method: as §1

[6] = tested on: Huh7 (human liver cancer cell); experiment: MTT solid tumor cell growth inhibition, 72 h; assay type: cell-based; conditions: Homo sapiens, Huh-7, Huh7, 72 h
Summary of the method: as §1

[7] = tested on: A549 (human lung cancer); experiment: MTT solid tumor cell growth inhibition, 72 h; assay type: cell-based; conditions: Homo sapiens, A549, 72 h
Summary of the method: as §1

[8] = tested on: CaES-17 (esophageal cancer cell); experiment: MTT solid tumor cell growth inhibition, 72 h; assay type: cell-based, human; conditions: Homo sapiens, CaEs17, CaES-17, 72 h
Summary of the method: as §1

[9] = tested on: U87 MG (malignant glioma cell); experiment: MTT solid tumor cell growth inhibition, 72 h; assay type: cell-based, human; conditions: Homo sapiens, U-87 MG
Summary of the method: as §1

[10] = tested on: MG63 (osteosarcoma); experiment: MTT solid tumor cell growth inhibition, 72 h; assay type: cell-based, human; conditions: Homo sapiens, MG 63, 72 h
Summary of the method: as §1

[11] = tested on: SK-OV-3 (ovarian cancer cell); experiment: MTT solid tumor cell growth inhibition, 72 h; assay type: cell-based, human; conditions: Homo sapiens, SK-OV-3, 72 h
Summary of the method: as §1

[12] = tested on: PC-3 (prostate cancer); experiment: MTT solid tumor cell growth inhibition, 72 h; assay type: cell-based, human; conditions: Homo sapiens, PC-3, 72 h
Summary of the method: as §1

[13] = tested on: CNE (nasopharyngeal carcinoma cell); experiment: MTT solid tumor cell growth inhibition, 72 h; assay type: cell-based, human; conditions: Homo sapiens
Summary of the method: as §1

[14] = tested on: PANC-1 (pancreatic cancer); experiment: MTT solid tumor cell growth inhibition, 72 h; assay type: cell-based, human; conditions: Homo sapiens, PANC-1, 72 h
Summary of the method: as §1

[15] = tested on: A549, PANC-1, Becap37, MG63, Huh7, RKO, Hela, CaES-17, CNE, Hep-2, PC-3 and SK-OV-3; experiment: Anti-human solid tumor effect, summary over cell lines; assay type: cell-based; conditions: result in words, summary of Table 2
Procedure: Human solid tumor cell lines: Hep-2 ([…]), A549 (human lung cancer), CaES-17 (esophageal cancer cell), PC-3 (prostate cancer), CNE (nasopharyngeal carcinoma cell), and SK-OV-3 (ovarian cancer cell), all of which are purchased from China Center For Type Culture Collection; RKO (human colon adenocarcinoma cell), MGC 803 (human gastric cancer cell), MG63 (osteosarcoma) and U87 MG (malignant glioma cell), all of which are purchased from Fuxiang Bio-tech Co. Ltd., Shanghai, China; PANC-1 (pancreatic cancer), Huh7 (human liver cancer cell), Becap37 (human breast cancer cell), and Hela (human cervical cancer cell), all of which are donated by Cancer Research Institute of Zhejiang University, China.
Obtaining 4000 well-growing human solid tumor cells and inoculating them into wells of a 96-well cell culture plate. The culture medium is DMEM High Glucose cell culture medium containing 10% fetal bovine serum. The plate is placed in a carbon dioxide cell incubator (5% CO2) at 37° C. and incubating for 24 hours. After adding the homoharringtonine derivatives of different concentration and mixing uniformly, the plate is placed in a carbon dioxide cell incubator (5% CO2) at 37° C. and incubating for 72 hours. Then the viable cell concentration is determined by the MTT method and the cell viability (%) after drug treatment is calculated. In this experiment, the cell viability of control group (not treated with any compound) is set as 100%.

[16] = tested on: K562/adr, NB4, Kasumi-1 and H9; experiment: Anti-leukemia activity, summary over cell lines; assay type: cell-based, human; conditions: result in words, summary of Table 1
Source text: Leukemia cell lines: K562/adr (drug-resistant, chronic myeloid leukemia, CML), NB4 (acute promyelocytic leukemia, AML), Kasumi-1 (acute myeloid leukemia M2 type, AML-M2), Jurkat (acute lymphoblastic leukemia, ALL), all of which are donated by Cancer Research Institute of Zhejiang University, China; and H9 (acute lymphoblastic leukemia, ALL), which is purchased from China Center for Type Culture Collection.
Obtaining 6000 well-growing leukemia cells and inoculating them into wells of a 96-well cell culture plate. The culture medium is the 1640 cell culture medium containing 10% fetal bovine serum. After adding the homoharringtonine derivatives of different concentrations and mixing uniformly, placing the plate in a carbon dioxide cell incubator (5% CO2) at 37° C. and incubating for 72 hours. Then the viable cell concentration is determined by the MTT method. In this experiment, the cell viability in control group (not treated with any compound) is set as 100%.

[17] = tested on: RPMI8226 (multiple myeloma); experiment: MTT multiple myeloma cell growth inhibition, 72 h; assay type: cell-based, human
Summary of the method: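 Viability determined by MTT after 72 h of compound exposure at 37° C under 5% CO2. Myeloma RPMI8226 cells were seeded at 6000 per well in 1640 medium containing 10% fetal bovine serum.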

[18] = tested on: Jurkat (acute lymphoblastic leukemia, ALL); experiment: MTT leukemia cell growth inhibition, 72 h; assay type: cell-based, human; conditions: Homo sapiens
Summary of the method: (§2)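 Using 6000 leukemia cells per well in 1640 medium supplemented with 10% fetal bovine serum, homoharringtonine derivatives at different concentrations were applied for 72 h, then viability was assessed by MTT.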

[19] = tested on: H9 (acute lymphoblastic leukemia, ALL); experiment: MTT leukemia cell growth inhibition, 72 h; assay type: cell-based, human; conditions: Homo sapiens, H9, 72 h
Summary of the method: as §2

[20] = tested on: NB4 (acute promyelocytic leukemia, AML); experiment: MTT leukemia cell growth inhibition, 72 h; assay type: cell-based, human; conditions: Homo sapiens, NB4, 72 h
Summary of the method: as §2

[21] = tested on: K562/adr (drug-resistant, chronic myeloid leukemia, CML); experiment: MTT leukemia cell growth inhibition, 72 h; assay type: cell-based, human; conditions: Homo sapiens, K562/Adr
Summary of the method: as §2

[22] = tested on: Kasumi-1 (acute myeloid leukemia M2 type, AML-M2); experiment: MTT leukemia cell growth inhibition, 72 h; assay type: cell-based, human; conditions: Homo sapiens, Kasumi-1, 72 h
Summary of the method: as §2

COC1=C[C@]23CCCN2CCc2cc4c(cc2[C@@H]3[C@@H]1OC(=O)[C@@](O)(CCCC(C)(C)O)CC(=O)NC1CCCCC1)OCO4 [BS-HH-042, O-3-[(2R)-2,6-dihydroxy-2-(2′-cyclohexaneamino-2′-oxoethyl)-6-methylheptanoyl]cephalotaxine]
IC50 ([1]; read-out: IC50): 0.17 mg/L (≈ 0.277 µM) | IC90 ([1]; read-out: IC90): > 16 mg/L | IC50 ([2]; read-out: IC50): 0.45 mg/L (≈ 0.734 µM) | IC90 ([2]; read-out: IC90): > 16 mg/L | IC50 ([3]; read-out: IC50): 0.97 mg/L (≈ 1.58 µM) | IC90 ([3]; read-out: IC90): > 16 mg/L | IC50 ([4]; read-out: IC50): 0.096 mg/L (≈ 0.157 µM) | IC90 ([4]; read-out: IC90): 0.25 mg/L (≈ 0.408 µM) | IC50 ([5]; read-out: IC50): 0.029 mg/L (≈ 0.0473 µM) | IC90 ([5]; read-out: IC90): 0.23 mg/L (≈ 0.375 µM) | IC50 ([6]; read-out: IC50): 0.044 mg/L (≈ 0.0718 µM) | IC90 ([6]; read-out: IC90): > 16 mg/L | IC50 ([7]; read-out: IC50): 0.45 mg/L (≈ 0.734 µM) | IC90 ([7]; read-out: IC90): > 16 mg/L | IC50 ([8]; read-out: IC50): 0.29 mg/L (≈ 0.473 µM) | IC90 ([8]; read-out: IC90): 16 mg/L (≈ 26.1 µM) | IC50 ([9]; read-out: IC50): 0.12 mg/L (≈ 0.196 µM) | IC90 ([9]; read-out: IC90): 13 mg/L (≈ 21.3 µM) | IC50 ([10]; read-out: IC50): 0.12 mg/L (≈ 0.196 µM) | IC90 ([10]; read-out: IC90): 16 mg/L (≈ 26.1 µM) | IC50 ([11]; read-out: IC50): 0.21 mg/L (≈ 0.343 µM) | IC90 ([11]; read-out: IC90): > 16 mg/L | IC50 ([12]; read-out: IC50): 0.31 mg/L (≈ 0.506 µM) | IC90 ([12]; read-out: IC90): > 16 mg/L | IC50 ([13]; read-out: IC50): 0.13 mg/L (≈ 0.212 µM) | IC90 ([13]; read-out: IC90): > 16 mg/L | IC50 ([14]; read-out: IC50): 0.13 mg/L (≈ 0.212 µM) | IC90 ([14]; read-out: IC90): > 16 mg/L | anti-A549, anti-PANC-1, anti-Becap37, anti-MG63, anti-Huh7, anti-RKO, anti-Hela, anti-CaES-17, anti-CNE, anti-Hep-2, anti-PC-3 and anti-SK-OV-3 effect [15]: strong | anti-K562/adr, anti-NB4, anti-Kasumi-1 and anti-H9 activity [16]: strong | IC50 ([17]; Homo sapiens, RPMI-8226, RPMI8226, 72 h, read-out: IC50): 0.042 mg/L (≈ 0.0685 µM) | IC90 ([17]; Homo sapiens, RPMI-8226, RPMI8226, 72 h, read-out: IC90): 0.24 mg/L (≈ 0.392 µM) | anti-RPMI8226 (multiple myeloma) effect ([17]; result in words, summary of Table 2): strong | IC50 ([18]; read-out: IC50): 0.037 mg/L (≈ 0.0604 µM) | IC90 ([18]; read-out: IC90): 16 mg/L (≈ 26.1 µM) | IC50 ([19]; read-out: IC50): 0.04 mg/L (≈ 0.0653 µM) | IC90 ([19]; read-out: IC90): 0.1 mg/L (≈ 0.163 µM) | IC50 ([20]; read-out: IC50): 0.06 mg/L (≈ 0.0979 µM) | IC90 ([20]; read-out: IC90): 0.13 mg/L (≈ 0.212 µM) | IC50 ([21]; read-out: IC50): 3.2 mg/L (≈ 5.22 µM) | IC90 ([21]; read-out: IC90): 16 mg/L (≈ 26.1 µM) | IC50 ([22]; read-out: IC50): 0.048 mg/L (≈ 0.0783 µM) | IC90 ([22]; read-out: IC90): 0.21 mg/L (≈ 0.343 µM)
